Results published in PubChem BioAssay (NCI).
Values joined by “and” are separate entries in the source; they are usually repeats but may differ in a detail not shown here. Equal entries are not always repeated.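 96-well plates; 48 h exposure; 5 concentrations. Endpoints by linear interpolation between flanking doses. Not reached: highest tested concentration assigned. GI50 = concentration required for 50% inhibition of growth. TGI is the concentration that stops growth completely.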

System: U251 CNS
Assay: NCI-60 cell line screen, 48 h

In order of rising GI50:
1. CCOC(=O)Oc1c(OC)cc(C(=O)NC2CCc3cc(OC)c(OC)c(OC)c3-c3ccc(SC)c(=O)cc32)cc1OC (stereo unspecified)  0.00962 µM
2. COC(=O)c1cc2c(cc1O)[C@@H](NC(C)=O)CCc1cc(OC)c(OC)c(OC)c1-2  0.0402 µM
3. Ic1ccc(Nc2nc3nonc3nc2Nc2ccc(I)cc2)cc1  0.324 µM
4. CC(C)(C)C(=O)OCOP(=O)(OCOC(=O)C(C)(C)C)C1CCCN(O)C1=O (stereo unspecified)  0.342 µM
5. CC/C(=C(/c1ccc(OCCN(C)C)cc1)c1ccc(OC(=O)CCCCC(=O)c2c(C)[nH]c(/C=C3\N=C(c4ccc[nH]4)C=C3OC)c2C)cc1)c1ccccc1  5.22 µM
6. CC(=O)OC1Oc2ccccc2-c2oc(=O)c(-c3cc(=O)oc4cc(O)ccc34)cc21 (stereo unspecified)  24 µM

First: CC/C(=C(/c1ccc(OCCN(C)C)cc1)c1ccc(OC(=O)CCCCC(=O)c2c(C)[nH]c(/C=C3\N=C(c4ccc[nH]4)C=C3OC)c2C)cc1)c1ccccc1
Second: COc1ccc(C2S/C(=C\c3ccccc3O)C(=O)N2NC(=O)Cc2ccccc2)cc1 (stereo unspecified)
The TGI of the first is lower: 18.3 µM for the first, over 100 µM for the second.

Going from `CC(=O)OC1Oc2ccccc2-c2oc(=O)c(-c3cc(=O)oc4cc(O)ccc34)cc21` (stereo unspecified) to `CC(=O)Nc1ccc(C(=O)NN2C(=O)C(Cl)C2c2ccccc2)cc1` (stereo unspecified), the TGI rises from 65.3 µM to over 100 µM.

`CS(=O)(=O)N/N=C/CN1C(=O)c2ccccc2C1=O` and `O=C1c2ccccc2C2(Br)C(=O)c3ccccc3C12` (stereo unspecified) cannot be ordered by TGI: over 100 µM for the first, over 100 µM for the second.

`Ic1ccc(Nc2nc3nonc3nc2Nc2ccc(I)cc2)cc1` and `O=C1c2ccccc2C(=O)C1(Cl)C1(S(=O)(=O)O)c2ccccc2-c2ccccc21` cannot be ordered by TGI: over 100 µM for the first, over 100 µM for the second.

First: CC(C)(C)C(=O)OCOP(=O)(OCOC(=O)C(C)(C)C)C1CCCN(O)C1=O (stereo unspecified)
Second: C=C(CCCCC)CN1CCCC1[C@@](C)(O)CC(=O)OCC (stereo partly specified)
The TGI of the first is lower: 5.22 µM for the first, over 100 µM for the second.

Compared with `COC(=O)C1=C(c2ccc3c(c2)OCO3)O[C@H](c2cc(OC)c(OC)c(OC)c2)[C@H]1COC(C)=O`, `COC(=O)c1cc2c(cc1O)[C@@H](NC(C)=O)CCc1cc(OC)c(OC)c(OC)c1-2` is 16-fold lower in TGI: 18.4 µM for the first, 1.17 µM for the second.

Compared with `COc1ccc(OC)c(NC(=O)C(=O)NNC(=O)c2sc(NNC(C)=O)nc2C)c1`, `CCCCc1c(OC)cc(O)c2c1C(=O)c1[nH]c(C(=O)O)c(O)c(=O)c1C2=O` is lower in TGI: over 100 µM for the first, 17.6 µM for the second.

`O=[N+]([O-])c1nccn1CC(O)c1ccc(F)cc1` (stereo unspecified) and `CC1OC(n2cc(F)c(=O)[nH]c2=O)C=CC1O` (stereo unspecified) cannot be ordered by TGI: over 100 µM for the first, over 100 µM for the second.

`CCCCOC(=O)C1C(c2ccc(Cl)cc2)NC(c2ccc(Cl)cc2)C(C(=O)OCCCC)S1(=O)=O` (stereo unspecified) and `CSc1nc2c(nc(C)c(=O)n2C2OCC(OC(C)=O)C(OC(C)=O)C2OC(C)=O)c(=O)[nH]1` (stereo unspecified) cannot be ordered by TGI: over 100 µM for the first, over 100 µM for the second.

First: O=S(O)CCCCSSCC(O)C(O)CSSCCCCS(=O)O (stereo unspecified)
Second: C=C(C=O)[C@@H]1C2OC(=O)C(=C)[C@@H]2CC(O)[C@@]1(C)CC (stereo partly specified)
The TGI of the first is higher: over 100 µM for the first, 32.4 µM for the second.

`CC[C@]12C=CCN3CC[C@@]4(c5ccc(OC)cc5N(C)[C@H]4[C@@](O)(C(=O)OC)[C@@H]1OC(=O)CCC[P+](c1ccccc1)(c1ccccc1)c1ccccc1)[C@@H]32` was tested, and the GI50 was 0.487 µM and 0.336 µM.

`CC[C@]12C=CCN3CC[C@@]4(c5ccc(OC)cc5N(C)[C@H]4[C@@](O)(C(=O)OC)[C@@H]1OC(=O)CCC[P+](c1ccccc1)(c1ccccc1)c1ccccc1)[C@@H]32` was tested, and the TGI was 6.59 µM and 2.64 µM.
For `CCOC(=O)Oc1c(OC)cc(C(=O)NC2CCc3cc(OC)c(OC)c(OC)c3-c3ccc(SC)c(=O)cc32)cc1OC` (stereo unspecified), the TGI was 0.287 µM and 0.0579 µM.

System: A549 NSCLC
Assay: NCI-60 cell line screen, 48 h

`O=C(CCCn1ccnc1[N+](=O)[O-])NCCn1cncc1[N+](=O)[O-]` and `CCCCCCCCCC/C=C/CC(=O)SCCNC(=O)CCNC(=O)[C@@H](O)C(C)(C)COP(=O)(O)OP(=O)(O)OCC1OC(n2cnc3c(N)ncnc32)C(O)C1OP(=O)(O)O` (stereo partly specified) cannot be ordered by TGI: over 100 µM for the first, over 10 µM for the second.

`Cn1cc(C2=C(c3ccc4ccccc4c3)C(=O)NC2=O)c2ccccc21` and `CC(=O)OC1Oc2ccccc2-c2oc(=O)c(-c3cc(=O)oc4cc(O)ccc34)cc21` (stereo unspecified) cannot be ordered by TGI: over 25 µM for the first, over 100 µM for the second.

`O=C(OCc1ccc2cccc(O)c2n1)N1CCN(C(=O)c2cc3cc(F)ccc3[nH]2)CC1` and `C=C(F)C(=O)N1CCN(c2nc(OC[C@@H]3CCCN3C)nc3c2CCN(c2cccc4cccc(Cl)c24)C3)C[C@@H]1CC#N` are within 1.5-fold of each other in TGI: 3.35 µM for the first, 2.57 µM for the second.

`C[As](C)SC1OC(CO)C(O)C1O` (stereo unspecified) and `CC(C)(C)C(=O)OCOP(=O)(OCOC(=O)C(C)(C)C)C1CCCN(O)C1=O` (stereo unspecified) cannot be ordered by TGI: over 61 µM for the first, over 100 µM for the second.

Compared with `Cn1c(=O)c2c(nc(Nc3cc(=O)[nH]c(=O)[nH]3)n2Cc2ccccc2)n(C)c1=O`, `Cc1c2cccnc2c(C)c2c1c1cc(CO)ccc1n2C` is lower in TGI: over 100 µM for the first, 11.7 µM for the second.

`COc1ccc2c(c1)CCC1C2CC[C@@]2(C)C1CC1=CC(COC(C)=O)C3C(=O)c4ccccc4C(=O)C3C12` (stereo partly specified) and `CS(=O)(=O)N/N=C/CN1C(=O)c2ccccc2C1=O` cannot be ordered by TGI: over 100 µM for the first, over 100 µM for the second.

Going from `CC/C(=C(/c1ccc(OCCN(C)C)cc1)c1ccc(OC(=O)CCCCC(=O)c2c(C)[nH]c(/C=C3\N=C(c4ccc[nH]4)C=C3OC)c2C)cc1)c1ccccc1` to `Ic1ccc(Nc2nc3nonc3nc2Nc2ccc(I)cc2)cc1`, the TGI rises from 15.7 µM to over 100 µM.

`Cn1cc(C2=C(c3ccc4ccccc4c3)C(=O)NC2=O)c2ccccc21` and `CC(=O)OC1Oc2ccccc2-c2oc(=O)c(-c3cc(=O)oc4cc(O)ccc34)cc21` (stereo unspecified) cannot be ordered by GI50: over 21.8 µM for the first, 24 µM for the second.

Compared with `O=C(OCc1ccc2cccc(O)c2n1)N1CCN(C(=O)c2cc3cc(F)ccc3[nH]2)CC1`, `C=C(F)C(=O)N1CCN(c2nc(OC[C@@H]3CCCN3C)nc3c2CCN(c2cccc4cccc(Cl)c24)C3)C[C@@H]1CC#N` is 2.4-fold lower in GI50: 1.62 µM for the first, 0.673 µM for the second.

First: C[As](C)SC1OC(CO)C(O)C1O (stereo unspecified)
Second: CC(C)(C)C(=O)OCOP(=O)(OCOC(=O)C(C)(C)C)C1CCCN(O)C1=O (stereo unspecified)
The GI50 of the first is 3.5-fold higher: 2.25 µM for the first, 0.637 µM for the second.

Compared with `Cn1c(=O)c2c(nc(Nc3cc(=O)[nH]c(=O)[nH]3)n2Cc2ccccc2)n(C)c1=O`, `Cc1c2cccnc2c(C)c2c1c1cc(CO)ccc1n2C` is lower in GI50: over 100 µM for the first, 2.65 µM for the second.

First: COc1ccc2c(c1)CCC1C2CC[C@@]2(C)C1CC1=CC(COC(C)=O)C3C(=O)c4ccccc4C(=O)C3C12 (stereo partly specified)
Second: CC/C(=C(/c1ccc(OCCN(C)C)cc1)c1ccc(OC(=O)CCCCC(=O)c2c(C)[nH]c(/C=C3\N=C(c4ccc[nH]4)C=C3OC)c2C)cc1)c1ccccc1
The GI50 of the first is higher: over 100 µM for the first, 3.92 µM for the second.

`Ic1ccc(Nc2nc3nonc3nc2Nc2ccc(I)cc2)cc1` gave a GI50 of 0.282 µM.

For `CC[C@]12C=CCN3CC[C@@]4(c5ccc(OC)cc5N(C)[C@H]4[C@@](O)(C(=O)OC)[C@@H]1OC(=O)CCC[P+](c1ccccc1)(c1ccccc1)c1ccccc1)[C@@H]32`, the GI50 was 1.5 µM and 1.11 µM.

`CC[C@]12C=CCN3CC[C@@]4(c5ccc(OC)cc5N(C)[C@H]4[C@@](O)(C(=O)OC)[C@@H]1OC(=O)CCC[P+](c1ccccc1)(c1ccccc1)c1ccccc1)[C@@H]32` was tested, and the TGI was 36.2 µM and 11.4 µM.
